Laboratory results from US20220280543A1, “DDX17 AND NLRC4 TARGETING FOR INFLAMMATORY DISEASES” (University of Virginia Patent Foundation, priority 2019, published 2022).

Key:
[1] = system: ASC oligomerization; experiment: Alu RNA induced ASC oligomerization in THP1 cells after siRNA knockdown; format: cell-based, human; settings: siRNA knockdown (FIG. 12A)
From the text: (§1) FIGS. 12A and 12B. DDX17 knockdown blocks Alu RNA (SEQ ID NO: 86) induced ASC oligomerization and IL-1β release. FIG. 12A. siRNA mediated DDX17 knockdown (siRNA for DDX17: CCAAUCUGAUGUAUCAGGA; SEQ ID NO: 91), but not Ddx5 (siRNA for DDX5: GGAAAUUACAGUUAGAGGU; SEQ ID NO: 89) in THP1 cells, blocked Alu RNA (SEQ ID NO: 86) induced ASC oligomerization. The band of ASC oligomers were indicated by black arrow. FIG. 12B. siRNA mediated DDX17 knockdown, but not Ddx5 in THP1 cells, blocked Alu RNA (SEQ ID NO: 86) induced IL-1β release.
(§2) To further confirm that DDX17 is the sensor for NLRC4, we investigated caspase-1 cleavage by immunoblotting and IL-1β secretion by ELISA in Alu RNA (SEQ ID NO: 86) or mock treated THP1 cells and DDX17 KO BMDMs respectively.

[2] = system: IL-1β; experiment: Alu RNA induced IL-1β release in THP1 cells after siRNA knockdown, ELISA; format: cell-based, human; settings: siRNA knockdown (FIG. 12B)
From the text: as §1, §2

[3] = system: RPE degeneration; experiment: Alu RNA induced RPE degeneration in mice, fundus images and ZO-1 staining; format: in vivo; settings: mice, subretinal Alu RNA; fundus and ZO-1 (FIGS. 25B, 26)
Procedure: FIGS. 25A and 25B. NLRC4 knockdown blocks Alu RNA (SEQ ID NO: 86) induced ASC oligomerization and RPE degeneration. Human RPE cell treated with siRNA target on NLRC4 (SMARTPOOL siRNA for NLRC4: CAACUGGGCUCCUCUGUAA; SEQ ID NO: 93) and NAIP (SMARTPOOL siRNA for NAIP: GUAAAGAGCUAUAUGGAUA; SEQ ID NO: 94), 24 hours later, treated with Alu RNA (SEQ ID NO: 86 at 100 pmol) FIG. 25A. […] The band of ASC oligomers was indicated by black arrow. […] The hyperdense areas due to the RPE degeneration in fundus images and ZO-1 disorganizations in RPE sheet are indicated by white arrows.
FIG. 26. […] Wilde type of C57/B6 mice were intravitreally injected with siRNA target on Ddx17 (siRNA for Ddx17: GGCUAGAUGUGGAAGAUGU; SEQ ID NO: 95), and two days later, Nlrc4^−/−, Naip1-6^−/−, mice and Ddx17 knockdown mice were subretinally injected with Alu RNA (SEQ ID NO: 86). […] The hyperdense areas due to the RPE degeneration in fundus images and ZO-1 disorganizations in RPE sheet are indicated by white arrows.
Next, we asked whether Alu RNA (SEQ ID NO: 86) also triggered NLRC4 inflammasome activation in human RPE cells. We performed immunofluorescence staining experiments to examine whether Alu RNA (SEQ ID NO: 86) can induce NLRC4 speck formation in human RPE cells. We noticed punctate structures resembling specks of NLRC4 in human RPE cells in response to Alu RNA (SEQ ID NO: 86) treatment (FIG. 24A). […] We further investigated downstream events of NLRC4 inflammasome activation by studying NLRC4-induced ASC oligomerization, a critical step involved in caspase-1 cleavage. NLRC4 siRNA, when co-administered with Alu RNA (SEQ ID NO: 86), blocked ASC oligomerization in vitro (FIG. 25A) and RPE degeneration in vivo (FIG. 25B).
We delivered Alu RNA (SEQ ID NO: 86) or Alu RNA (SEQ ID NO: 86)+siDDX17 subretinally in WT or NLRC4 KO or NAIP1-6 KO mice and examined for RPE degeneration using fundus photos and ZO-1 staining as described previously.

[4] = system: NLRC4 inflammasome; experiment: Flagellin induced classical NLRC4 inflammasome (caspase-1) after DDX17 knockdown; format: cell-based; settings: Flagellin 3 μg/ml, siRNA 24 hours before (FIG. 15)
Procedure: (§3) FIG. 15. […] THP1 cell were transfected with siRNA target on DDX17 (siRNA sequence: CCAAUCUGAUGUAUCAGGA; SEQ ID NO: 91), and then 24 hours later, Flagellin (3 μg/ml) or LPS (125 ng/ml) plus ATP ([…]/30 minutes), DOTAP plus LPS was added to the THP1 cells. Supernatants were collected for Caspase-1 detection. […] Loading control show by actin. The caspase-1 precursor is referred as p45, and the active form of caspase-1 as p20. The adaptor protein for inflammasome assembly, apoptosis-associated speck-like protein containing a CARD (ASC) is labeled as ASC. The caspase-1p20) bands were indicated with black arrow.
(§4) We finally examined whether DDX17 has a role in conventional NLRC4 activation by flagellin that requires NAIP and LPS+ATP dependent NLRP3 inflammasome activation. We treated […] with flagellin or LPS+ATP and transfected with siDDX17 and examined NLRC4 or NLRP3 dependent caspase-1 cleavage.

[5] = system: NLRP3 inflammasome; experiment: LPS+ATP induced NLRP3 inflammasome (caspase-1) after DDX17 knockdown; format: cell-based; settings: LPS 125 ng/ml plus ATP, siRNA 24 hours before (FIG. 15)
Procedure: as §3, §4

[6] = system: CXCL10, IFNB, IL-1β, CASPASE-1 expression; experiment: Alu RNA induced type I interferon response and inflammatory priming, qPCR, BMDM with DDX17 knockdown; format: cell-based, mouse; settings: siRNA 24 hours before Alu RNA 100 pmol, qPCR (FIGS. 14A, 14B)
Procedure: FIGS. 14A and 14B. […] Wild type BMDM cell were transfected with siRNA target on DDX17 (CCAAUCUGAUGUAUCAGGA; SEQ ID NO: 91), and then 24 hours later, BMDM cells were treated with Alu RNA (SEQ ID NO: 86; 100 pmol). Total RNA extracted for qPCR assay.
We previously reported that Alu RNA (SEQ ID NO: 86) induces a type I interferon (IFN) response and inflammatory priming in BMDMs. Since DDX17 is essential for Alu RNA (SEQ ID NO: 86) induced inflammasome activation, we tested whether DDX17 knockdown could affect downstream events of the inflammasome cascade such as the type I IFN response.

[7] = system: caspase-1; experiment: Alu RNA induced caspase-1 activation in THP1 cells after siRNA knockdown; format: cell-based, human; settings: siRNA knockdown (FIGS. 11A, 11B)
From the text: FIGS. 11A and 11B. Ddx17 involved in Alu RNA (SEQ ID NO: 86) induced inflammasome independent of its microprocessor function. DDX17 is a component of microprocessor complexes with DDX5 and Drosha. To test whether the microprocessor function of DDX17 is required for Alu RNA (SEQ ID NO: 86) induced inflammasome, we measured caspase-1 activation in THP cells with DDX5 or Drosha knockdown (siRNA for DDX5: GGAAAUUACAGUUAGAGGU; SEQ ID NO: 89); siRNA for Drosha: GACAAGUUGAUAGGAUAUA; SEQ ID NO: 90). FIG. 11A. siRNA mediated Ddx17 knockdown, but not Ddx5 in THP1 cells, blocked Alu RNA (SEQ ID NO: 86) induced caspase-1 activation. […] The caspase-1 (p20) bands were indicated with black arrows.
We next examined whether DDX5 or DDX17 was the sensor for Alu RNA (SEQ ID NO: 86) induced NLRC4 inflammasome activation. Due to the high degree of similarity in the sequences of DDX5 and DDX17, we designed 3 siRNAs targeting DDX5 alone, DDX17 alone, or both DDX5 and DDX17, and confirmed their target efficiency in THP1 cells (FIG. 11A). […] Therefore, we tested whether Drosha is also involved in SINE RNA-DDX17-NLRC4 axis. […] These observations implicate that DDX17 mediated SINE RNA induced NLRC4 inflammasome is independent of microprocessor function.

Substance: siDDX17: siRNA for DDX17: CCAAUCUGAUGUAUCAGGA; SEQ ID NO: 91 (chemistry not fully specified)
- Alu RNA induced ASC oligomerization, THP1 cells [1]: prevented
- Alu RNA induced IL-1β release, THP1 cells, ELISA [2]: significantly reduced
- Alu RNA induced RPE degeneration in vivo, effect of siRNA [3]: rescued from this phenotype
- flagellin induced NLRC4 inflammasome, caspase-1 levels [4]: does not affect
- LPS+ATP induced NLRP3 inflammasome, caspase-1 levels [5]: does not affect
- expression of caspase-1, CXCL10, IFNβ, IL-18 and IL-1β genes after Alu RNA [6]: did not affect
- caspase-1 cleavage in Alu RNA treated THP1 cells [7]: inhibited
- caspase-1 cleavage in Alu RNA treated THP1 cells ([7]; listed as DDX17 siRNA): reduce
